# Key:
# Assay type in all cases: cell-based
# [1] = test system: mouse colon cancer CT26 cells; test: Docetaxel/Eribulin/Paclitaxel and Defactinib: microscopy and CRT/Annexin-V/PI flow cytometry; conditions: 48 hours, Defactinib 5 µM, Docetaxel 0.3 µM, Eribulin 0.3 µM, Paclitaxel 6 µM, alone or combined with Defactinib
# Protocol: (§1) CT26 cells were cultured in monolayer in vitro under the following conditions: RPMI-1640 medium with 10% fetal bovine serum, 37°C, 5% CO2. Trypsin was used for routine digestion and passage treatment two to three times a week. When the cells were in the exponential growth phase and the adherent confluence reached 80%-90%, the cells were harvested and plated.
# (§2) CT26 cells were digested with trypsin, and then the cells were collected and counted. Based on the counting results, the cells were diluted with the corresponding complete culture medium to a concentration of 50,000 cells per milliliter. Then the cells were plated in 12-well cell culture plates, with 2 ml of cell suspension per well, i.e., 100,000 cells.
# (§3) After plating, the cells were cultured in a 37°C and 5% CO2 incubator.
# After 24 hours of plating, the test compounds Docetaxel, Eribulin, Paclitaxel and Defactinib were added to different wells, respectively.
# (§4) After 48 hours of drug action, the cells were photographed using a microscope, and then trypsinized and collected for flow cytometry staining.
# (§5) The cells were washed twice with flow buffer (DPBS + 2% FBS). 0.5 µL of AF647 Anti-Calreticulin Antibody was added to each well, and mixed well. The cells were incubated at 4°C in the dark for 20 min. After washing once with flow buffer, 195 µL of Annexin-V-FITC binding solution was added, and the cells were gently mixed well. 5 µL of Annexin-V-FITC antibody was added. After further mixing, 10 µL of PI dye was added and mixed well. The cells were incubated at room temperature in the dark for 15 min. The cells were then subjected to flow cytometry.
# (§6) After the assay, the cell positive rate was analyzed by Flowjo (V10) software.
# [2] = test system: MDA-MB-231 cells; test: FAK silencing combined with Eribulin, Calreticulin (ICD target) by flow cytometry; conditions: MDA-MB-231 cells transfected with FAK siRNA 50 nM for 24 hours, then 0.15 µM Eribulin 48 hours; vs control siRNA
# Protocol: (§7) • 1. FAK silencing combined with Eribulin promotes apoptosis of breast cancer cells MDA-MB-231 The siRNA technology was used in the in vitro assays to reduce the expression level of FAK, and combined with Eribulin for 48 hours; flow cytometry was used to detect apoptosis in control and FAK silenced cells. • 2. FAK silencing combined with Eribulin can effectively promote the production of ICD in breast cancer cells MDA-MB-231 The siRNA technology was used in the in vitro assay to reduce the expression level of FAK, and combined with Eribulin for 48 hours. Flow cytometry was used to detect the expression of Calreticulin, the main target of ICD.
# (§8) Recombinant Alexa Fluor® 647 fluorescent Anti-Calreticulin antibody (Abcam, ab196159), Annexin V apoptosis detection kit (Invitrogen, A35110).
# (§9) FAK siRNA was provided by Gene Pharma, and the sequence is shown in the following table: • F: […]; • R: […] • Assay instruments: Fluorescence microscope (Olympus U-HGLGPS). Chemiluminescence imager (BIORAD chemidoc touch).
# (§10) • 1. […] The cells were stained using Annexin V kit and detected by flow cytometry. The early and late apoptosis values were counted, compared with those of the DMSO control group, and plotted using Graphpad 8.0. […] The cells were fluorescent stained with Calreticulin antibody, and the staining results were analyzed by flow cytometry.
# [3] = test system: mouse breast cancer 4T1 cells; test: Eribulin and IN10018: microscopy and CRT/Annexin-V/PI and GRP94 flow cytometry; conditions: 48 hours, IN10018 5 µM, Eribulin 0.15 µM or 0.45 µM, alone or combined
# Protocol: as §1, with “4T1” for “CT26”, “37 °C,” for “37°C,”
# 4T1 cells were digested with trypsin and then collected and counted. Based on the counting results, the cells were diluted with RPMI-1640+10% FBS to a concentration of 50,000 cells per milliliter. Then the cells were plated in 12-well cell culture plates, with 2 ml of cell suspension per well, i.e., 100,000 cells. After plating, the cells were cultured in a 37°C and 5% CO2 incubator.
# (§11) After 24 hours of plating, test compounds IN10018 and Eribulin were added to different wells, respectively.
# as §4
# The cells were washed twice with flow buffer (DPBS + 2% FBS), and each group of cells was divided into two equal parts. In one part, 0.5 µL of AF647 Anti-Calreticulin Antibody was added to each well, and mixed. The cells were incubated at 4°C in the dark for 20 min. […]
# as §6
# [4] = test system: MDA-MB-231 cells; test: FAK silencing combined with Eribulin, Annexin V apoptosis by flow cytometry; conditions: MDA-MB-231 cells transfected with FAK siRNA 50 nM for 24 hours, then 0.15 µM Eribulin 48 hours; FAK silencing group compared with control group
# Protocol: as §7, §8, §9, §10
# [5] = test system: mouse breast cancer 4T1 cells; test: Docetaxel/Eribulin and Defactinib: microscopy and CRT/Annexin-V/PI flow cytometry; conditions: 48 hours, Defactinib 5 µM, Docetaxel 0.3 µM, Eribulin 0.1 µM, alone or combined with Defactinib
# Protocol: 4T1 cells were cultured in a monolayer in vitro in RPMI-1640 medium with 10% fetal bovine serum in a 37 °C, 5% CO2 incubator. Trypsin was used for routine digestion and passage treatment two to three times a week. When the cells were in the exponential growth phase and the adherent confluence reached 80%-90%, the cells were harvested and plated.
# as §2, with “4T1” for “CT26”
# as §3
# After 24 hours of plating, the test compounds Defactinib, Docetaxel and Eribulin were added to different wells, respectively.
# as §4
# The cells were washed twice with flow buffer (DPBS + 2% FBS). 0.5 µL of AF647 Anti-Calreticulin Antibody was added to each well, and mixed well. The cells were incubated at 4°C in the dark for 20 min. […]
# as §6
# [6] = test system: mouse ovarian epithelial carcinoma ID8 cells; test: Eribulin and IN10018: microscopy and CRT/Annexin-V/PI flow cytometry; conditions: 48 hours, IN10018 10 µM, Eribulin 0.045 µM, alone or combined
# Protocol: (§12) ID8 cells and TOV-21G cells were cultured in monolayer in vitro. ID8 cells were cultured in DMEM medium with 10% fetal bovine serum. TOV-21G cells were cultured in RPMI-1640 medium with 10% fetal bovine serum. Both were cultured in a 37 °C, 5% CO2 incubator. Trypsin was used for routine digestion and passage treatment two to three times a week. When the cells were in the exponential growth phase and the adherent confluence reached 80%-90%, the cells were harvested and plated.
# as §2, with “ID8 cells and TOV-21G” for “CT26”, “trypsin” for “trypsin,”, “then” for “then the cells were”
# as §3, §11, §4
# as §5, with “well, and mixed. The cells” for “well, and mixed well. The cells”
# as §6
# [7] = test system: human ovarian epithelial carcinoma TOV-21G cells; test: as above; conditions: 48 hours, IN10018 10 µM, Eribulin 0.045 µM, alone or combined
# Protocol: as §12
# as §2, with “ID8 cells and TOV-21G” for “CT26”, “trypsin” for “trypsin,”, “then” for “then the cells were”
# as §3, §11, §4
# as §5, with “well, and mixed. The cells” for “well, and mixed well. The cells”
# as §6
smiles,measurement,setting,value
C=C1C[C@@H]2CC[C@@]34C[C@H]5O[C@H]6[C@@H](O3)[C@H]3O[C@H](CC[C@@H]3O[C@H]6[C@H]5O4)CC(=O)C[C@@H]3[C@@H](OC)[C@@H](C[C@H](O)CN)O[C@H]3C[C@H]3O[C@@H](CC[C@@H]1O2)C[C@@H](C)C3=C [Eribulin],cell status (cell death) under a microscope,[1],obvious
same,release and exposure of Calreticulin,[2],significantly enhanced
same,cell status (cell death / cell viability) under a microscope,[3],obvious
same,early and late apoptosis (Annexin V kit),[4],significantly enhanced
same,cell status (cell death) under a microscope,[5],obvious
same,cell status (cell death / cell viability) under a microscope,[6],obvious
same,cell status (cell death / cell viability) under a microscope,[7],obvious

# — patent EP4578449A1, “PHARMACEUTICAL COMBINATION OF FAK INHIBITOR AND MICROTUBULE INHIBITOR AND USE THEREOF” (Inxmed (Nanjing) Co., Ltd., priority 2022, dated 2024)
